ChEMBL document CHEMBL5150003, “Why All the Fury over Furin?” (J Med Chem, 2022)
Numbered stars: 1 amine (or outer) side, 2 acyl side, 3 side chain; on linkers, the order of the positions; unused ones are H or OH. Square brackets hold non-standard residues; d marks the D form. Peptide text beside a SMILES is read from it. * marks the point of attachment. X2 = CC(C(=O)[*:2])n1cc(C(CCCNC(=N)N)N[*:1])nn1; NH(4-amidinobenzyl) = N=C(N)c1ccc(CN*)cc1; PhAc = O=C(Cc1ccccc1)*

What was measured:
[1] = Dissociation constant, pKa of the compound; assay type: physicochemical
Furin [2] = molecular target: T1, Furin (Homo sapiens, UniProt P09958); test: Inhibition of furin (unknown origin)
Mus musculus [3] = test: Antifibrotic activity against bleomycin-induced mouse lung fibrosis model assessed as inhibition of hydroxyproline content in lung at 10 mg/kg, ip administered twice daily; assay type: functional
Mus musculus [4] = test: Antifibrotic activity against bleomycin-induced mouse lung fibrosis model assessed as inhibition of TGF-beta secretion in lung at 10 mg/kg, ip administered twice daily; assay type: functional
Furin [5] = molecular target: T1, Furin; test: Inhibition of furin in human U2OS cells measured after 24 hrs by fluorescence assay; assay type: cell-based
Furin [6] = molecular target: T1, Furin; test: Inhibition of soluble recombinant human furin using pyroGlu-Arg-Thr-Lys-Arg-AMC as substrate and measured by fluorescence assay
[7] = Inhibition of porcine trypsin using Mes-DArg-Gly-Arg-AMC as substrate and measured by fluorescence assay; parameters: species or system Sus scrofa
[8] = Stability in mouse plasma assessed as compound remaining measured after 24 hrs; assay type: ADME, cell-free; conditions: read-out: Stability
Vero = test: Protective activity against Escherichia coli O157:H7 Shiga toxin-induced cytotoxicity in monkey Vero cells measured by LDH assay; assay type: functional, cell-based; conditions: Chlorocebus sabaeus
[9] = Stability in mouse plasma assessed as half-life; assay type: ADME, cell-free
Mus musculus [10] = test: Antifibrotic activity against bleomycin-induced mouse lung fibrosis model assessed as inhibition of hydroxyproline content in lung at 30 mg/kg, po administered once daily; assay type: functional
Mus musculus [11] = test: Antifibrotic activity against bleomycin-induced mouse lung fibrosis model assessed as inhibition of TGF-beta secretion in lung at 30 mg/kg, po administered once daily; assay type: functional
Furin [12] = molecular target: T1, Furin; test: Inhibition of recombinant human furin using Phac-Arg-Val-Arg-Arg-AMC as substrate incubated for 30 mins and measured by microplate reader method
Furin [13] = molecular target: T1, Furin; test: Inhibition of human furin using Pyr-RTKR-AMC as substrate preincubated for 30 mins followed by substrate addition and measured by fluorescence based assay
Mus musculus [14] = test: Antifibrotic activity against bleomycin-induced mouse lung fibrosis model assessed as inhibition of hydroxyproline content in lung at 10 mg/kg, ip administered once daily; assay type: functional
Mus musculus [15] = test: Antifibrotic activity against bleomycin-induced mouse lung fibrosis model assessed as inhibition of TGF-beta secretion in lung at 10 mg/kg, ip administered once daily; assay type: functional

T1 sequence (P09958 whole entry): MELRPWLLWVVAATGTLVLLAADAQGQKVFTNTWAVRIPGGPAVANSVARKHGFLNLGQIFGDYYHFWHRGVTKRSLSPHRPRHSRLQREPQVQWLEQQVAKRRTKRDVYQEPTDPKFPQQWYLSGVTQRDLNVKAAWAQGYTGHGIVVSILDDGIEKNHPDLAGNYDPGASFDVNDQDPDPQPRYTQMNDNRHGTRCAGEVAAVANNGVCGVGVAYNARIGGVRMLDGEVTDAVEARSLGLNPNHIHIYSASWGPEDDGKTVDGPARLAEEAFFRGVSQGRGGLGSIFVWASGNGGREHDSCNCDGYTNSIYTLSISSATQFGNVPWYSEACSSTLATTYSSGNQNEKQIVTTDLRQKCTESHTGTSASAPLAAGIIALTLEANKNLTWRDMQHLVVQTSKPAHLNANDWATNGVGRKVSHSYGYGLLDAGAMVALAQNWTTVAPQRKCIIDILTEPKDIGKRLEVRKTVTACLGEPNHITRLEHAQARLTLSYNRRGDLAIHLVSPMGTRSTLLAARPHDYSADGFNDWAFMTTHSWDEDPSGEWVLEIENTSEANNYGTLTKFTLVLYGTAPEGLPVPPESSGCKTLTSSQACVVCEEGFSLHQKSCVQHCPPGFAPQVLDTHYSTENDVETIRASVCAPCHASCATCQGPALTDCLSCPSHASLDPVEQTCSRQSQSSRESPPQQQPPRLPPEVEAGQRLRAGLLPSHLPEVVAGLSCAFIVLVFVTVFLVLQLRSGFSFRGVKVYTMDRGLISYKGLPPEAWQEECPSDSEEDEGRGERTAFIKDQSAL

Q: For `CC(C)(C)[C@H](NC(=O)[C@H](CCCNC(=N)N)NC(=O)Cc1ccc(CNC(=N)N)cc1)C(=O)N[C@@H](CCCNC(=N)N)C(=O)NCc1ccc(CN)cc1`, which pKa [1] is on record?
A: 9.28

Q: And the IC50 (Furin [2])?
A: 9.53 nM

Q: And the Ki (Furin [2])?
A: 2.52 nM

Q: For `CC(=O)NCC1CCN(Cc2cc(Oc3ccc(N4CCN(CCC(=O)O)CC4)nc3)nc(-c3cc(Cl)cc(Cl)c3)c2)CC1`, which inhibition in vivo at 10 mg/kg (Mus musculus [3]) is on record?
A: 67%

Q: What about the inhibition in vivo at 10 mg/kg (Mus musculus [4]) of the same compound?
A: 69%

Q: And the pXC50 (Furin [5])?
A: 7.6

Q: Which Ki (Furin [6]) does the source give for `N=C(N)N/N=C/c1ccc(Oc2ccc(Oc3ccc(/C=N/NC(=N)N)cc3)cc2)cc1` here?
A: 740 nM

Q: Which Ki [7] does the source give for `CC(C)(C)[C@H](NC(=O)[C@H](CCCNC(=N)N)NC(=O)Cc1ccc(CNC(=N)N)cc1)C(=O)N[C@@H](CCCNC(=N)N)C(=O)NCc1ccc(C(=N)N)cc1` here?
A: 52 nM

Q: With `C/C(=N\NC(=N)N)c1ccc(OCCCOc2ccc(/C(C)=N/NC(=N)N)cc2)cc1` as the compound, how does the Ki (Furin [6]) read?
A: 1430 nM

Q: With `CC(=O)N[C@@H](CCCNC(=N)N)C(=O)NN(CCCNC(=N)N)CC(=O)N[C@@H](C)C(=O)N[C@@H](CCCNC(=N)N)C(=O)N[C@@H](CCCNC(=N)N)C(=O)N[C@@H](CCCNC(=N)N)C(=O)N[C@@H](CCCCN)C(=O)N[C@@H](CCCCN)C(=O)N[C@@H](CCCNC(=N)N)C(=O)N[C@H](C(N)=O)[C@@H](C)O` as the compound, how does the remaining at 24 h [8] read?
A: 29%

Q: What about the IC50 (Vero) of the same compound?
A: > 1 mM

Q: What about the Ki (Furin [2]) of the same compound?
A: 12 nM

Q: And the half-life [9]?
A: 62.4 min

Q: Which inhibition in vivo at 30 mg/kg (Mus musculus [10]) does the source give for `CC(=O)NCC1CCN(Cc2cc(Oc3ccc(N4CCN(CCS(C)(=O)=O)CC4)nc3)nc(-c3cc(Cl)cc(Cl)c3)c2)CC1` here?
A: 45%

Q: What about the inhibition in vivo at 30 mg/kg (Mus musculus [11]) of the same compound?
A: 41%

Q: What about the pXC50 (Furin [5]) of the same compound?
A: 7.6

Q: For `CC(C)(C)[C@H](NC(=O)[C@H](CCCNC(=N)N)NC(=O)Cc1ccc(CNC(=N)N)cc1)C(=O)N[C@@H](CCCONC(=N)N)C(=O)NCc1ccc(C(=N)N)cc1`, which Ki (Furin [12]) is on record?
A: 0.0131 nM

Q: With `CC1C(=O)N[C@@H](CCCNC(=N)N)C(=O)N[C@@H](C)C(=O)N[C@@H](CCCNC(=N)N)C(=O)N[C@@H](CCCNC(=N)N)C(=O)N[C@@H](CCCNC(=N)N)C(=O)N[C@H](C(=O)N[C@@H](CCCCN)C(=O)N[C@@H](CCCNC(=N)N)C(=O)N[C@H](C(N)=O)[C@@H](C)O)CCCCNC(CCCNC(=N)N)c2cn1nn2` (stereo partly drawn) as the compound, how does the remaining at 24 h [8] read?
A: 28%

Q: What about the Ki (Furin [2]) of the same compound?
A: 16.7 nM

Q: What about the half-life [9] of the same compound?
A: 42 min

Q: With `CC(=O)N[C@@H](CCCNC(=N)N)C(=O)N[C@H](C(=O)N[C@@H](Cc1ccc(N=C(N)N)cc1)C(=O)NCc1ccc(C(=N)N)c(F)c1)C(C)C` as the compound, how does the Ki (Furin [13]) read?
A: 3.7 nM

Q: Which results are given for `CC(=O)NCC1CCN(Cc2cc(Oc3ccc(N4CCN(CCO)CC4)nc3)nc(-c3cc(Cl)cc(Cl)c3)c2)CC1`?
A: inhibition in vivo at 10 mg/kg (Mus musculus [14]): 56%; pXC50 (Furin [5]): 8.5; inhibition in vivo at 10 mg/kg (Mus musculus [15]): 60%

Q: Which remaining at 24 h [8] does the source give for `CC(C(=O)N[C@@H](C)C(=O)N[C@@H](CCCNC(=N)N)C(=O)N[C@@H](CCCNC(=N)N)C(=O)N[C@@H](CCCNC(=N)N)C(=O)N[C@@H](CCCCN)C(=O)N[C@@H](CCCCN)C(=O)N[C@@H](CCCNC(=N)N)C(=O)N[C@H](C(N)=O)[C@@H](C)O)n1cc(C(CCCNC(=N)N)NC(=O)[C@@H](N)CCCNC(=N)N)nn1` (stereo partly drawn) (H-R[X2]ARRRKKRT-NH2) here?
A: 20%

Q: What about the Ki (Furin [2]) of the same compound?
A: 13 nM

Q: And the half-life [9]?
A: 74.2 min

Q: For `N=C(N)N/N=C/c1cccc(OCCCOc2cccc(/C=N/NC(=N)N)c2)c1`, which Ki (Furin [6]) is on record?
A: 1700 nM

Q: What does the source list for `CN1CCCN(c2cnc(Oc3cc(CN4CCC(CC(=O)O)CC4)cc(-c4cc(Cl)cc(Cl)c4)n3)cn2)CC1`?
A: inhibition in vivo at 30 mg/kg (Mus musculus [10]): 21%; inhibition in vivo at 30 mg/kg (Mus musculus [11]): 26%; pXC50 (Furin [5]): 7.7

Q: Which pKa [1] does the source give for `CC(C)(C)[C@H](NC(=O)[C@H](CCCNC(=N)N)NC(=O)Cc1ccc(CNC(=N)N)cc1)C(=O)N[C@@H](CCCNC(=N)N)C(=O)NCc1ccc(C(=N)N)c(F)c1` here?
A: 9.46

Q: What about the IC50 (Furin [2]) of the same compound?
A: 0.56 nM

Q: What about the Ki (Furin [2]) of the same compound?
A: 0.0223 nM

Q: Which Ki (Furin [6]) does the source give for `N=C(N)N/N=C/c1ccc(N2CCN(c3ccc(/C=N/NC(=N)N)cc3)CC2)cc1` here?
A: 1540 nM

Q: Which Ki (Furin [12]) does the source give for `CC(C)[C@H](NC(=O)[C@H](CCCNC(=N)N)NC(=O)[C@H](CCCNC(=N)N)NC(=O)[C@H](CCCNC(=N)N)NC(=O)Cc1ccccc1)C(=O)N[C@@H](CCCNC(=N)N)C(=O)NCc1ccc(C(=N)N)cc1` (PhAc-RRRVR-{NH(4-amidinobenzyl)}) here?
A: 0.0138 nM

Q: With `CC(C)[C@H](NS(=O)(=O)Cc1ccc(C(=N)N)cc1)C(=O)N[C@@H](CCCNC(=N)N)C(=O)NCc1ccc(C(=N)N)cc1` as the compound, how does the Ki (Furin [13]) read?
A: 300 nM

Q: Which inhibition in vivo at 30 mg/kg (Mus musculus [10]) does the source give for `COC(=O)NCC1CCN(Cc2cc(Oc3cnc(N4CCN(CCC(=O)O)CC4)nc3)nc(-c3cc(Cl)cc(Cl)c3)c2)CC1` here?
A: -14%

Q: And the inhibition in vivo at 30 mg/kg (Mus musculus [11])?
A: 7%

Q: And the pXC50 (Furin [5])?
A: 7.5

Q: Which results are given for `CNC(=O)NCC1CCN(Cc2cc(Oc3ccc(N4CCN(CCC(=O)O)CC4)nc3)nc(-c3cc(Cl)cc(Cl)c3)c2)CC1`?
A: inhibition in vivo at 10 mg/kg (Mus musculus [14]): 39%; pXC50 (Furin [5]): 7.6; inhibition in vivo at 10 mg/kg (Mus musculus [15]): 67%
